Residues, ends and D or L forms follow the SMILES beside them. *: point of attachment. Cbz = O=C(OCc1ccccc1)*

In general, melting point refers to the temperature, or range, at which the solid turns liquid. As to `COCOc1ccccc1-c1cc(-c2cccc(C(=O)OC)c2)c(C#N)c(N)n1`, the melting point was in the range of 129 to 130 °C. For `CCc1cc2c(cc1O)C(C)(C)CCC2(C)C` the value was 88 to 89 °C; for `N=C(NCc1cccnc1)NN=Cc1c(Cl)cccc1Cl`, 148 to 151 °C; for `C=C(C(=O)c1ccc(Cl)cc1)c1ccc(Cl)cc1Cl`, 90 to 93 °C.

`CCOC(=O)c1[nH]c(=O)sc1Br` registered a melting point of 121 °C.

For the molecule `O=C1Nc2ccccc2N(C(=O)N2CCC(CCCCN3CCCC3)CC2)c2ncccc21`, the melting point was in the range of 193 to 195 °C. The molecule `COCCc1nc2c(N)nc3ccccc3c2n1CCCNC(=O)c1ccccc1` gave a melting point of 183 to 186 °C. For `O=C1C(=CN2CCOCC2)c2ccccc2N1c1cccc(Cl)c1` the value was 130 to 132 °C. In the case of `CCOc1nc(C2CC2)nc(OC)c1C=O`, the melting point lay in the range of 93 to 94 °C. For `COc1cc2c(cc1OC)C1=NCCc3cccc(c31)C2=O` the value was 228 °C; for `C#Cc1cccc(Nc2ncnc3[nH]cc(-c4ccc(Cl)cc4)c23)c1`, 225 to 227 °C.

The molecule `CCCCCN1C(=O)C(CCC(=O)OC)(NC(=O)c2ccc(Cl)c(Cl)c2)c2ccccc21` (configuration not stated) had a melting point of 84 to 114 °C.

Consider `C=C(C)Cn1ncc(Cl)c(Cl)c1=O`, for which the melting point was in the range of 52 to 54 °C. The molecule `CCOC(=O)c1cc(O)c2ccc3c(c2c1-c1cc(OC)c(OC)c(OC)c1)OCO3` registered a melting point of 151 to 152 °C. As to `COc1ccc(S(=O)(=O)c2ccc(OC)c3ccccc23)cc1`, the melting point was in the range of 160 to 162 °C. For `O=C(O)c1cc(NCc2ccc(Cl)cc2)ccc1O` the value was 227 to 228 °C; for `OCc1ccc2ccc3cccc4ccc1c2c34`, 125 to 126 °C. With `CC(=O)NCc1ccc(CN2CCN(c3ccc(F)cc3)CC2)cc1` the figure was 164 to 166 °C; with `Cc1ccc(-c2ccc(C)c(C)n2)cc1`, 76 °C; with `CCCc1c(OCC(O)COc2ccc3c(C)c(CC(=O)O)c(=O)oc3c2)ccc(C(C)=O)c1O` (configuration not stated), 130 °C. With `O=CNc1nc(SCc2ccccc2)nn1-c1ccccc1` the figure was 94 °C; with `Cc1cc(Br)ccc1C1(Cn2cncn2)OCCO1`, 148 °C; with `CN1CC2(CCN(Cc3ccccc3)CC2)OC1=O`, 137 to 138 °C.

Turning to `CS(=O)CCNC(=O)c1cc2cc(S(N)(=O)=O)sc2s1` (configuration not stated), the melting point was 242 to 243 °C. Molecule `O=C(NC1CCCCC1)c1ccc(CO)cc1` came in with a melting point of 185 °C. For `COc1ccc2nc3ccc(OC)cc3c(C(=O)O)c2c1` the value was 192 to 193 °C.

`COc1ccc2cccc(C(CO)CNC(=O)C(F)(F)F)c2c1` (configuration not stated) showed a melting point of 138 to 140 °C. `COc1cc2c(=O)n(CCCn3ccnc3)c3c4ccccc4[nH]c(=O)c3c2cc1OC`: the melting point was in the range of 288 to 290 °C.

Molecule `O=C(O)c1cc(S(=O)(=O)Cl)cc(S(=O)(=O)Cl)c1O` displayed a melting point of 185 to 187 °C. Consider `CCCCc1oc2ccccc2c1C(O)c1cc(I)c(OCCN(CC)CC)c(I)c1` (configuration not stated), for which the melting point lay within 106 to 107 °C. With `CCOC(=O)c1ncc2[nH]c3cccc(Cc4ccccc4Cl)c3c2c1COC` the figure was 182 to 184 °C. For `CCOCc1nc2c(N)nc3ccccc3c2n1CCCCS(=O)(=O)NC(C)C` the value was 146 to 147 °C. With `C=CCOc1cc(O)c2c(=O)cc(-c3ccc(OC)c(OCC=C)c3)oc2c1` the figure was 122 °C. The molecule `O=C(C(=O)c1ccc(C(F)(F)F)cc1)c1ccncc1` returned a melting point of 70 to 72 °C. With `COC(=O)c1ccc(Oc2ccc(NC(=O)c3ccc([N+](=O)[O-])cc3Br)cc2NC(=O)c2ccc([N+](=O)[O-])cc2Br)cc1C(=O)OC` the figure was 138 to 142 °C; with `Cc1nc(N2CCN(CC3CCCC3)C2=O)sc1C(=O)NCc1cccnc1`, 142 to 143 °C; with `O=C(O)c1cc2cc(F)c(F)cc2[nH]1`, 279 to 280 °C. In turn, `CN1CCN(c2cccc(C(=O)N3CC=C(c4ccccc4F)CC3)n2)CC1` showed a melting point of 177 °C. `CCCn1c(=O)c2c(nn3cc(C4CC4)[nH]c23)n(Cc2ccccc2)c1=O`: the melting point was 264 to 265 °C. For `Cc1ccc2c(c1)C(=O)C[C@H]1CCN(C)C[C@H]21` (relative stereo) the value was greater than 250 °C. With `COC(=O)Cn1c(=O)c2ccccc2n(CCCN2CCC(OC(c3ccccc3)c3ccccc3)CC2)c1=O` the figure was 109 to 110 °C; with `CC(C)[C@H](C[C@H](O)[C@H](C)NC(=O)OC(C)(C)C)C(=O)NN`, 55 to 62 °C; with `Cc1ccc(F)cc1C1CC(=O)c2c(C)cnnc2C1` (configuration not stated), 127 to 128 °C.

`CCOCc1cc2ccc(OC)cc2o/c1=N\c1ccccc1`: the melting point was 107 to 108 °C. For `COc1cc(OCc2ccccn2)ccc1/C=C/c1cc(/C=C/c2ccc3[nH]nnc3c2)n[nH]1` the value was 113 to 120 °C; for `O=C(CNC(=O)C(Cc1ccc(OCc2ccccc2)cc1)NC(=O)OCc1ccccc1)Nc1n[nH]c(=S)s1` (configuration not stated), 201 to 202 °C. For `Cc1nc2ccccc2n1-c1nc(Cl)nc(Cl)n1` the value was greater than 300 °C. Molecule `COCCN1CCc2ccc(Nc3ncc(Cl)c(Nc4ccccc4C(=O)NC4CC4)n3)cc2CC1` yielded a melting point of 165 to 180 °C. With `COc1cc(-c2nc3ccccc3n2Cc2ccccc2C(F)(F)F)cc(OC)c1OC` the figure was 144 °C; with `CC1=C(C(=O)OC(C)C)C(c2cccc([N+](=O)[O-])c2)n2c(cc(=O)n2C(=O)OC(C)C)N1` (configuration not stated), 162 to 164 °C. On to `OCCCCOC(c1ccccc1)(c1ccccc1)c1ccccc1`, for which the melting point lay in the range of 73 to 74 °C. For `Cc1cc(Cl)cc(Cl)c1CNc1c(NC(C)(C)C)c(=O)c1=O` the value was 264 to 268 °C; for `COc1ccc(-c2c3c(cc4ccc(OC)cc24)C(=O)NC3=O)cc1`, 290 to 292 °C; for `COC1(OC)SC(c2ccncc2)=C(C)NC1=O`, 154 to 155 °C.

Molecule `CSC(=S)N1CCN(Cc2ccccc2O)CC1` displayed a melting point of 147 °C.

For the molecule `Cn1c(=O)c(-c2c(Cl)cccc2Cl)cc2cnc(Nc3ccc(CC(=O)O)cc3)nc21`, the melting point is 286 to 290 °C.

In turn, `C1=NC=C2CCNC=C12` displayed a melting point of 182 to 190 °C. For `CCOC(=O)C(C)n1c(-c2ccc(Cl)cc2)nc2cccnc21` (configuration not stated) the value was 103 to 106 °C; for `COc1cccc(C(CCCCCCc2ccccc2)CNC(=O)Cc2c(Cl)cncc2Cl)c1` (configuration not stated), 97 to 98 °C. With `O=C(c1ccc(Cl)cc1)C1CCN(S(=O)(=O)N2CCCC[C@@H]2C(=O)NO)CC1` the figure was 84.4 to 86.4 °C; with `CCOC(=O)/C=C/c1cnn(C)c1-c1cccs1`, 73 to 74 °C.

In turn, `CC(C)(C)OC(=O)NCc1ccc(C2(C)OCCO2)cc1` registered a melting point of 105 to 107 °C. With `NC(CCCSc1nccc(NC(N)=NCC(F)(F)F)n1)=NO` the figure was 137 to 139 °C.

`COC(=O)C(Cc1ccccc1)NC(=O)C(CC(N)=O)NC(=O)OCc1ccccc1` (stereo not drawn) (Cbz-Asn-Phe-OMe; configuration not given here) came in with a melting point of 196 to 197 °C. For `COC(=O)C1=C(C)NC(C)=C(C(=O)OCCN2CCN(c3cccc(Cl)c3Cl)CC2)C1c1cccc([N+](=O)[O-])c1` (configuration not stated) the value was 189 to 190 °C. With `CCCCCCCCCCCC(=O)Nc1ccc2nc(S)[nH]c2c1` the figure was 266 to 267 °C; with `O=C1C(=O)N(c2ccc(F)cc2)c2ccc(F)cc21`, 180 to 190 °C. For `COc1ccc(C(=O)c2ccccc2F)c(Cl)c1Cl` the value was 74 to 77 °C; for `CSc1cccc(NC(=O)N(O)C2CCCCC2)c1`, 147 to 148 °C. On to `COc1c(C2CCN(CCCCNC(=O)c3ccc(-c4ccc(C#N)nc4)cc3)CC2)ccc2c1CCCC2`, for which the melting point lay within 179 to 181 °C. For `O=C(CCCl)Nc1cccc(NC(=O)Nc2ccc(N(CCCl)CCCl)cc2)c1` the value was 232 to 233 °C.

With `CNC1(c2ccccc2)CC=C(c2[nH]c3ccccc3c2CCc2ccncc2)CC1` (configuration not stated), the melting point was 168 to 172 °C. With `COc1ccc2c(c1)CCC1C2CCC2(C)C(O)C(N)CC12` (configuration not stated) the figure was 159 to 161 °C. For `O=C1NCCN(C(=O)OCc2ccccc2)C1Cc1ccccc1` (configuration not stated) the value was 125 to 128 °C; for `CS(=O)(=O)Nc1cc(C(c2cc(F)ccc2F)S(=O)(=O)c2ccc(F)c(F)c2)c(Cl)cn1` (configuration not stated), 118 to 120 °C. With `CC(Cc1c[nH]c2ccccc12)(NC(=O)OC1CCCCC1Cl)C(=O)NCCc1ccccc1` (configuration not stated) the figure was 69 to 78 °C; with `O=C(O)COc1ccc2c(-c3ccc(Cl)cc3)noc2c1Cl`, 254 to 257 °C. Molecule `CCn1c(=O)c2c(nc(/C=C/c3cccc(OC(C)=O)c3OC(C)=O)n2C)n(CC)c1=O` showed a melting point of 228 to 230 °C.

On to `COC(=O)NC1CN(C(=O)c2cc(OC)c(OC)c(OC)c2)CCN1C(=O)C1=Cc2cc(OC)c(OC)cc2CCC1` (configuration not stated), for which the melting point lay within 143 to 145 °C.

With `COCCc1nc2c(N)nc3ccccc3c2n1CCOCCN(C)S(=O)(=O)C(C)C`, the melting point came out at 130 °C. With `O=[N+]([O-])c1cc(OCc2ccccc2)ccc1Cl` the figure was 50 to 50.5 °C; with `COc1ccc(-c2sc3c(c2C)c(=O)c(CO)cn3Cc2ccccc2OC)cc1`, 153 to 156 °C. With `NNC(=O)c1ncnc2[nH]ccc12` the figure was 252 to 254 °C; with `Cc1nnc(N2C(=O)C(O)=C(C(=O)c3ccc(C(C)C)cc3)C2c2ccc(OC(F)(F)F)cc2)s1` (configuration not stated), 260 °C. The molecule `CCCCCCC(=Cc1ccccc1)C(O)Cc1nc(C)c(C)nc1C` (configuration not stated) displayed a melting point of 61 to 62 °C. With `CN(C)C(=O)c1c(C(=O)NN=Cc2ccc3ccccc3c2)[nH]c2ccccc12` the figure was 256 to 260 °C. For `CCN1CC(NC(=O)c2cc(Cl)c(N)cc2OC)CN1CC` the value was 117 to 119 °C.

The values above are taken from a melting point compilation (Tetko et al.; mined from patent text by program, amines drawn as free bases though some values may be those of a salt).
